Assay results: ChEMBL document CHEMBL5550202, “Rationally Designed Highly Potent NKT Cell Agonists with Different Cytokine Selectivity through Hydrogen-Bond Interaction” (J Med Chem, 2024)
Active and inactive are the calls of the source. The rule behind the calls is not given here.

How the values were obtained:
Splenocyte [1] = assay: Induction of Th2-specific IL-4 secretion in C57BL/6 mouse splenocytes assessed as increase in IL-4 level in supernatant at 100 nM treated as liposomal formulation preincubated for 30 mins with anti-CD1d monoclonal antibody followed by compound addition and measured after 72 hrs by ELISA; type: functional, cell-based
Splenocyte [2] = assay: Cytotoxicity against C57BL/6 mouse splenocytes assessed as reduction in cell viability at 10 to 1000 nM treated as liposomal formulation measured after 72 hrs by MTT assay; type: toxicity, cell-based; settings: 1 µM, dose 10-1000 nM
Splenocyte [3] = assay: Induction of Th1-specific IFN-gamma secretion in C57BL/6 mouse splenocytes assessed as increase in IFN-gamma level in supernatant at 100 nM treated as liposomal formulation preincubated for 30 mins with anti-CD1d monoclonal antibody followed by compound addition and measured after 72 hrs by ELISA; type: functional, cell-based
Splenocyte [4] = assay: (§1) Ex vivo induction of Natural killer T cell mediated dendritic cell activation in C57BL/6 mouse splenocytes assessed as increase in CD80 expression on CD11c-positive dendritic cells at 2.33 nmol, ip administered as single dose in liposomal formulation measured after 24 hrs by flow cytometry analysis (reference value: 8.4%); type: functional
B16-F10 [5] = assay: Antitumor activity against mouse B16-F10 cells implanted in C57BL/6 mouse assessed as reduction in metastatic nodules in lung at 0.58 nmol, ip administered as single dose in liposomal formulation for 1 day followed by tumor inoculation and measured after 3 weeks; type: functional, organism-based; settings: time 22.0 day
Splenocyte [6] = assay: as §1, with “proportion of IFN-gamma positive natural killer” for “CD80 expression on CD11c-positive dendritic”, “2.74%)” for “8.4%)”; type: functional
Splenocyte [7] = assay: as §1, with “CD86” for “CD80”, “8.9%)” for “8.4%)”; type: functional
Mus musculus [8] = assay: Induction of Th1/2-balanced cytokine response in BALB/c mouse assessed as fold increase in IL-4 secretion in serum at 2.33 nmol, ip administered as single dose in liposomal formulation and measured after 2 hrs by ELISA relative to control; type: functional
Mus musculus [9] = assay: Induction of Th1/2-balanced cytokine response in BALB/c mouse assessed as increase in IFN-gamma secretion in serum at 0.5 ug, ip administered as single dose in liposomal formulation and measured after 24 hrs by ELISA; type: functional, organism-based; settings: dose 0.5 µg
Splenocyte [10] = assay: Induction of Th2-specific IL-4 secretion in C57BL/6 mouse splenocytes assessed as increase in IL-4 level in supernatant at 1 to 10 nM treated as liposomal formulation and measured after 72 hrs by ELISA; type: functional, cell-based; settings: dose 1-10 nM
B16-F10 [11] = assay: (§2) Antitumor activity against mouse B16-F10 cells implanted in C57BL/6 mouse assessed as reduction in number of metastatic nodules in lung at 0.58 nmol, ip administered as single dose in liposomal formulation for 1 day followed by tumor inoculation and measured after 3 weeks relative to control; type: functional; set-up: scale not given: the % may be the effect or the level left; settings: time 22 day
Mus musculus [12] = assay: Induction of Th1/2-balanced cytokine response in BALB/c mouse assessed as increase in IFN-gamma/IL-4 secretion ratio at 0.5 ug, ip administered as single dose in liposomal formulation and measured after 24 hrs by ELISA; type: functional, organism-based; settings: dose 0.5 µg
[13] = biological target: T1, Antigen-presenting glycoprotein CD1d (Mus musculus) (UniProt P11609+P11610); assay: Binding affinity to Cd1D in C57BL/6 mouse BMDC cells assessed as glycolipid presentation by measuring glycolipid/Cd1D complex formation at 100 nM treated as liposomal formulation and measured at 6 to 24 hrs by L363 cell surface staining based flow cytometry analysis; settings: time 6-24 hrs
Mus musculus [14] = assay: Induction of Th1/2-balanced cytokine response in BALB/c mouse assessed as activation of immune cells by measuring increase in IL-12 release in serum at 2.33 nmol, ip administered as single dose in liposomal formulation and measured at 6 hrs by ELISA; type: functional, organism-based
Mus musculus [15] = assay: Induction of Th1/2-balanced cytokine response in C57BL/6 mouse assessed as increase in IL-4 secretion in serum at 2.33 nmol, ip administered as single dose in liposomal formulation and measured for 48 hrs by ELISA; type: functional, organism-based
[16] = biological target: T1, Antigen-presenting glycoprotein CD1d (Mus musculus); assay: Binding affinity to Cd1D in intact C57BL/6 mouse BMDC cells assessed as glycolipid/Cd1D complex formation by measuring strong staining of cell membrane at 100 nM treated as liposomal formulation and measured after 18 hrs by L363 mAb staining based confocal microscopic analysis
Mus musculus [17] = assay: Induction of Th1/2-balanced cytokine response in BALB/c mouse assessed as increase in IL-4 secretion in serum at 0.5 ug, ip administered as single dose in liposomal formulation and measured after 24 hrs by ELISA; type: functional, organism-based; settings: dose 0.5 µg
[18] = Induction of Th1-specific IFN-gamma secretion in C57BL/6 mouse splenocytes assessed as fold increase in IFN-gamma level in supernatant at 10 nM treated as liposomal formulation and measured after 72 hrs by ELISA relative to alpha-galactosylceramide; type: functional, Splenocyte
[19] = Induction of Th1-specific IFN-gamma secretion in C57BL/6 mouse splenocytes assessed as fold increase in IFN-gamma level in supernatant at 1 nM treated as liposomal formulation and measured after 72 hrs by ELISA relative to alpha-galactosylceramide; type: functional, Splenocyte
Mus musculus [20] = assay: Induction of Th1/2-balanced cytokine response in C57BL/6 mouse assessed as increase in IFN-gamma secretion in serum at 2.33 nmol, ip administered as single dose in liposomal formulation and measured for 48 hrs by ELISA; type: functional, organism-based
Mus musculus [21] = assay: Induction of Th1/2-balanced cytokine response in BALB/c mouse assessed as fold increase in IL-4 secretion in serum at 2.33 nmol, ip administered as single dose in liposomal formulation and measured after 6 to 48 hrs by ELISA; type: functional, organism-based; settings: time 6-48 hrs
Mus musculus [22] = assay: Induction of Th1/2-balanced cytokine response in BALB/c mouse assessed as fold increase in IFN-gamma secretion in serum at 2.33 nmol, ip administered as single dose in liposomal formulation and measured after 24 hrs by ELISA relative to control; type: functional
[23] = biological target: T1, Antigen-presenting glycoprotein CD1d (Mus musculus); assay: Binding affinity to Cd1D in C57BL/6 mouse BMDC cells assessed as glycolipid presentation by measuring glycolipid/Cd1D complex formation at 100 nM treated as liposomal formulation preincubated for 12 hrs and cells further recultured without compound for 2 to 12 hrs by pulse-chase analysis; type: cell-based
Mus musculus [24] = assay: Induction of Th1/2-balanced cytokine response in BALB/c mouse assessed as increase in IFN-gamma secretion in serum at 2.33 nmol, ip administered as single dose in liposomal formulation and measured after 24 hrs by ELISA; type: functional, organism-based
B16-F10 [25] = assay: Antitumor activity against mouse B16-F10 cells implanted in C57BL/6 mouse assessed as suppression of tumor progression at 0.58 nmol, ip administered as single dose in liposomal formulation for 1 day followed by tumor inoculation and measured after 3 weeks; type: functional, organism-based; settings: time 22.0 day
B16-F10 [26] = assay: as §2, with “inhibition” for “reduction in number”, “of” for “of metastatic nodules in”, “lung metastasis” for “lung”, “weeks by H and E staining based analysis” for “weeks”; type: functional; settings: time 22 day

Compound	Activity (Splenocyte [1])	Activity (Splenocyte [2])	Activity (Splenocyte [3])	Activity (Splenocyte [4]) [%]	Activity (B16-F10 [5])	Activity (Splenocyte [6]) [%]	Activity (Splenocyte [7]) [%]	Activity (Mus musculus [9])	Activity (Splenocyte [10])	Activity (B16-F10 [11]) [%]	Activity (Mus musculus [12])	Activity [13]	Activity (Mus musculus [14])	Activity (Mus musculus [15])	Activity [16]	Activity (Mus musculus [17])	fold change (FC) [18]	fold change (FC) [19]	Activity (Mus musculus [20])	also measured
CCCCCCCCCCCCCC[C@@H](O)[C@@H](O)[C@H](CO[C@H]1O[C@H](CO)[C@H](O)[C@H](O)[C@H]1O)NC(=O)CCCCCCCCCCCCCNS(=O)(=O)CCCCCCCCCC	inactive	Non-Toxic	inactive	–	–	–	–	–	–	–	–	–	–	–	–	–	–	–	–	–
CCCCCCCCCCCCCC[C@@H](O)[C@@H](O)[C@H](CO[C@H]1O[C@H](CO)[C@H](O)[C@H](O)[C@H]1O)NC(=O)CCCCCCCCCCCCNS(=O)(=O)CCCCCCCCCCC	inactive	Non-Toxic	inactive	–	–	–	–	–	–	–	–	–	–	–	–	–	–	–	–	–
CCCCCCCCCCCCCCCCCCCCCCCCCC(=O)N[C@@H](CO[C@H]1O[C@H](CO)[C@H](O)[C@H](O)[C@H]1O)[C@H](O)[C@H](O)CCCCCCCCCCCCCC [RGI-7000]	inactive	Non-Toxic	inactive	27.6	Active	6.11	32	–	–	–	–	–	–	–	–	–	–	–	–	–
CCCCCCCCCCCCCC[C@@H](O)[C@@H](O)[C@H](CO[C@H]1O[C@H](CO)[C@H](O)[C@H](O)[C@H]1O)NC(=O)CCCCCCCCCNS(=O)(=O)CCCCCCCCCCCCCC	inactive	Non-Toxic	inactive	–	–	–	–	–	–	–	–	–	–	–	–	–	–	–	–	–
CCCCCCCCCCCCCC[C@@H](O)[C@@H](O)[C@H](CO[C@H]1O[C@H](CO)[C@H](O)[C@H](O)[C@H]1O)NC(=O)CCCCCCCCCCCNS(=O)(=O)CCCCCCCCCCCC	inactive	Non-Toxic	inactive	33.9	Active	12	46.8	Active	inactive	66	Active	Active	Active	Active	Active	Active	4.7	6.2	Active	fold change (FC) (Mus musculus [8]): 4.7; Activity (Mus musculus [21]): inactive; fold change (FC) (Mus musculus [22]): 7
CCCCCCCCCCCCCC[C@@H](O)[C@@H](O)[C@H](CO[C@H]1O[C@H](CO)[C@H](O)[C@H](O)[C@H]1O)NC(=O)CCCCCCCCCCNS(=O)(=O)CCCCCCCCCCCCC	inactive	Non-Toxic	inactive	32.9	Active	11.2	44.6	Active	inactive	82	Active	Active	Active	Active	Active	Active	7.7	9.6	Active	Activity [23]: Active; Activity (Mus musculus [24]): Active; Activity (B16-F10 [25]): Active; inhibition (INH) (B16-F10 [26]): ~100%
